As usually defined, the Ki is a dissociation constant, usually derived from enzyme kinetics or from competition with a known ligand.

This note sets out measurements from patent publication US11498923B2 (Merck Sharp & Dohme Corp., priority 2017, dated 2022).

T1 sequence (P29274 whole entry): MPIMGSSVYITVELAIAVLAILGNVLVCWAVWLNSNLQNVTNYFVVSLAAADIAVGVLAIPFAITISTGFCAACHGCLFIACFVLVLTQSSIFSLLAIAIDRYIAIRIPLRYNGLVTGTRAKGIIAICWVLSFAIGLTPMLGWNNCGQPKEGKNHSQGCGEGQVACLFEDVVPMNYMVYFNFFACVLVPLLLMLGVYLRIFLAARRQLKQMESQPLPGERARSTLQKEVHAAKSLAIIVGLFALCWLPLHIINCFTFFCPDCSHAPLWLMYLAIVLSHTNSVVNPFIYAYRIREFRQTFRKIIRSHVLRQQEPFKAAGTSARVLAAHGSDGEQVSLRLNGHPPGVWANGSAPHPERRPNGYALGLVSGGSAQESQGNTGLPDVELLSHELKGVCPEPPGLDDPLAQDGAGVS

One test has as its target T1, human A2a receptor (Homo sapiens, UniProt P29274).
T1 construct: purchased Perkin-Elmer RBHA2AM400UA; host or cells: HEK293 cells, used as a membrane preparation
The test is described as follows: A2a receptor competition binding assay (Scintillation Proximity). The following applies: A2a Ki, membranes from HEK293 cells expressing human A2a receptor; 0.5 nM tritiated ligand; Cheng-Prusoff. The method, boiled down: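 HEK293 membranes bearing the human receptor, pretreated with adenosine deaminase, competed against 0.5 nM tritiated pyrazolotriazolopyrimidine antagonist with compound at 3000–0.15 nM final in DPBS plus 10 mM MgCl2. SPA bead readout after 1 h at room temperature; Ki from EC50 via Cheng-Prusoff.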
A general note: SPA uses beads or plates that emit light when radiolabelled molecules are held near them.
Take `COc1cccc2c1nc(N)n1cc(C(=O)N3CCC4(CC3)OCCO4)nc21` [Ex-188, (5-amino-7-methoxyimidazo[1,2-c]quinazolin-2-yl)(1,4-dioxa-8-azaspiro[4.5]decan-8-yl)methanone]: the Ki was determined as 54 nM.

The test is the same for the next values; noted with them: membranes from HEK293 cells expressing human A2a receptor; 0.5 nM tritiated ligand; Cheng-Prusoff; read-out: A2a Ki.
Consider `Nc1nc2c(F)cccc2c2nc(C(=O)NCc3cccc4cccnc34)cn12` [Ex-163, 5-amino-7-fluoro-N-(quinolin-8-ylmethyl)imidazo[1,2-c]quinazoline-2-carboxamide], for which the Ki amounted to 12.8 nM. Turning to `COc1ccc(CNc2nc3c(F)cccc3c3nc(C(=O)N4Cc5ccc(Br)cc5C4)cn23)c(OC)c1` [Ex-164, (5-bromoisoindolin-2-yl)(5-((2,4-dimethoxybenzyl)amino)-7-fluoroimidazo[1,2-c]quinazolin-2-yl)methanone], the Ki is > 2200 nM. Consider `Nc1nc2ccccc2c2nc(C(=O)N3CCN(c4ccc(F)cc4F)CC3)cn12` [Ex-165, (5-aminoimidazo[1,2-c]quinazolin-2-yl)(4-(2,4-difluorophenyl)piperazin-1-yl)methanone], for which the inhibition constant (Ki) was determined as 10000 nM. Same read-out and setting: as for `Nc1nc2c(F)cccc2c2nc(C(=O)NCC(c3cccnc3)N3CCOCC3)cn12` (stereo not drawn) [Ex-166, 5-amino-7-fluoro-N-(2-morpholino-2-(pyridin-3-yl)ethyl)imidazo[1,2-c]quinazoline-2-carboxamide], the figure is 1400 nM; as for `COc1cccc2c1nc(N)n1cc(C(=O)N3CC(C)CC(C)C3)nc21` (stereo not drawn) [Ex-167, (5-amino-7-methoxyimidazo[1,2-c]quinazolin-2-yl)(3,5-dimethylpiperidin-1-yl)methanone], 16 nM; as for `COc1cccc2c1nc(N)n1cc(C(=O)N3CCC(F)(F)CC3)nc21` [Ex-168, (5-amino-7-methoxyimidazo[1,2-c]quinazolin-2-yl)(4,4-difluoropiperidin-1-yl)methanone], 81 nM. In the case of `COc1cccc2c1nc(N)n1cc(C(=O)N3CCCC(OC)C3)nc21` (stereo not drawn) [Ex-169, (5-amino-7-methoxyimidazo[1,2-c]quinazolin-2-yl)(3-methoxypiperidin-1-yl)methanone], the inhibition constant (Ki) was determined as 34 nM. For `COc1cccc2c1nc(N)n1cc(C(=O)N3CCCC(C)C3)nc21` (stereo not drawn) [Ex-170, (5-amino-7-methoxyimidazo[1,2-c]quinazolin-2-yl)(3-methylpiperidin-1-yl)methanone], the Ki came out at 11.5 nM. For `COc1cccc2c1nc(N)n1cc(C(=O)N3CCCC(F)C3)nc21` (stereo not drawn) [Ex-171, (5-amino-7-methoxyimidazo[1,2-c]quinazolin-2-yl)(3-fluoropiperidin-1-yl)methanone], the Ki is 20 nM. With `COc1cccc2c1nc(N)n1cc(C(=O)N3CCCC(F)(F)C3)nc21` [Ex-172, (5-amino-7-methoxyimidazo[1,2-c]quinazolin-2-yl)(3,3-difluoropiperidin-1-yl)methanone], the Ki came out at 18 nM. For the compound `COc1cccc2c1nc(N)n1cc(C(=O)N3CCCC(C(F)(F)F)C3)nc21` (stereo not drawn) [Ex-173, (5-amino-7-methoxyimidazo[1,2-c]quinazolin-2-yl)(3-(trifluoromethyl)piperidin-1-yl)methanone], the inhibition constant Ki was found to be 31 nM. On the same count and under the same terms, as for `COc1cccc2c1nc(N)n1cc(C(=O)N3CCCC4(CC4)C3)nc21` [Ex-174, (5-amino-7-methoxyimidazo[1,2-c]quinazolin-2-yl)(5-azaspiro[2.5]octan-5-yl)methanone], the figure is 2.3 nM; as for `COc1cccc2c1nc(N)n1cc(C(=O)N3C[C@@H](F)[C@H](F)C3)nc21` [Ex-175, (5-amino-7-methoxyimidazo[1,2-c]quinazolin-2-yl)((3R,4R)-3,4-difluoropyrrolidin-1-yl)methanone], 21 nM; as for `COc1cccc2c1nc(N)n1cc(C(=O)N3CCCC(C)CC3)nc21` (stereo not drawn) [Ex-176, (5-amino-7-methoxyimidazo[1,2-c]quinazolin-2-yl)(4-methylazepan-1-yl)methanone], 10 nM. Regarding `COc1cccc2c1nc(N)n1cc(C(=O)N3CCCOCC3)nc21` [Ex-177, (5-amino-7-methoxyimidazo[1,2-c]quinazolin-2-yl)(1,4-oxazepan-4-yl)methanone], the Ki was 49 nM. With `COc1cccc2c1nc(N)n1cc(C(=O)N3CCCC(F)(F)CC3)nc21` [Ex-178, (5-amino-7-methoxyimidazo[1,2-c]quinazolin-2-yl)(4,4-difluoroazepan-1-yl)methanone], the Ki came out at 27 nM. As to `COc1cccc2c1nc(N)n1cc(C(=O)N3CCCC(=O)CC3)nc21` [Ex-179, 1-(5-amino-7-methoxyimidazo[1,2-c]quinazoline-2-carbonyl)azepan-4-one], the Ki was 31 nM. Take `COc1cccc2c1nc(N)n1cc(C(=O)N3C[C@@H](C)O[C@@H](C)C3)nc21` [Ex-180, (5-amino-7-methoxyimidazo[1,2-c]quinazolin-2-yl)((2R,6S)-2,6-dimethylmorpholino) methanone]: the Ki came to 53 nM. As to `COc1cccc2c1nc(N)n1cc(C(=O)N3CCO[C@H](C)C3)nc21` [Ex-181, (R)-(5-amino-7-methoxyimidazo[1,2-c]quinazolin-2-yl)(2-methylmorpholino) methanone], the Ki was found to be 110 nM. In the case of `COc1cccc2c1nc(N)n1cc(C(=O)N3CCO[C@@H](C)C3)nc21` [Ex-182, (S)-(5-amino-7-methoxyimidazo[1,2-c]quinazolin-2-yl)(2-methylmorpholino) methanone], the Ki turned out to be 75 nM. On the same count and under the same terms, as for `COc1cccc2c1nc(N)n1cc(C(=O)N3CCOC[C@H]3C)nc21` [Ex-183, (R)-(5-amino-7-methoxyimidazo[1,2-c]quinazolin-2-yl)(3-methylmorpholino) methanone], the figure is 126 nM; as for `COc1cccc2c1nc(N)n1cc(C(=O)N3CCOC[C@@H]3C)nc21` [Ex-184, (S)-(5-amino-7-methoxyimidazo[1,2-c]quinazolin-2-yl)(3-methylmorpholino) methanone], 90 nM. Same read-out and setting: as for `COc1cccc2c1nc(N)n1cc(C(=O)N3CCOC(C(F)(F)F)C3)nc21` (stereo not drawn) [Ex-185, (5-amino-7-methoxyimidazo[1,2-c]quinazolin-2-yl)(2-(trifluoromethyl)morpholino) methanone], the figure is 65 nM. `COc1cccc2c1nc(N)n1cc(C(=O)N3CCOCC3CC(C)C)nc21` (stereo not drawn) [Ex-186, (5-amino-7-methoxyimidazo[1,2-c]quinazolin-2-yl)(3-isobutylmorpholino) methanone]: the inhibition constant Ki was 53.8 nM. Take `COc1cccc2c1nc(N)n1cc(C(=O)N3CCOC(C)(C)C3)nc21` [Ex-187, (5-amino-7-methoxyimidazo[1,2-c]quinazolin-2-yl)(2,2-dimethylmorpholino) methanone]: the inhibition constant (Ki) came to 190 nM. With `COc1cccc2c1nc(N)n1cc(C(=O)N3CCCC(C)(C)C3)nc21` [Ex-189, (5-amino-7-methoxyimidazo[1,2-c]quinazolin-2-yl)(3,3-dimethylpiperidin-1-yl)methanone], the Ki came to 4.5 nM. Take `COc1cccc2c1nc(N)n1cc(C(=O)N3CCCCC3)nc21` [Ex-190, (5-amino-7-methoxyimidazo[1,2-c]quinazolin-2-yl)(piperidin-1-yl)methanone]: the inhibition constant (Ki) stood at 21 nM. Still for that read-out and setting: the figure for `COc1cccc2c1nc(N)n1cc(C(=O)N3CCCC(CO)C3)nc21` (stereo not drawn) [Ex-191, (5-amino-7-methoxyimidazo[1,2-c]quinazolin-2-yl)(3-(hydroxymethyl)piperidin-1-yl)methanone] is 23 nM; for `COc1cccc2c1nc(N)n1cc(C(=O)N3CCC4CCCCC4C3)nc21` (stereo not drawn) [Ex-192, (5-amino-7-methoxyimidazo[1,2-c]quinazolin-2-yl)(octahydroisoquinolin-2(1H)-yl)methanone] it is 11 nM; for `COc1cccc2c1nc(N)n1cc(C(=O)N3CCC(C)CC3)nc21` [Ex-193, (5-amino-7-methoxyimidazo[1,2-c]quinazolin-2-yl)(4-methylpiperidin-1-yl)methanone] it is 13 nM.

With `CCN(CC)C(=O)C1CCCN(C(=O)c2cn3c(N)nc4c(OC)cccc4c3n2)C1` (stereo not drawn) [Ex-194, 1-(5-amino-7-methoxyimidazo[1,2-c]quinazoline-2-carbonyl)-N,N-diethylpiperidine-3-carboxamide], the Ki stood at 21 nM. Same read-out and setting: the figure for `COc1cccc2c1nc(N)n1cc(C(=O)N3CCCCC3C)nc21` (stereo not drawn) [Ex-195, (5-amino-7-methoxyimidazo[1,2-c]quinazolin-2-yl)(2-methylpiperidin-1-yl)methanone] is 10 nM; for `COc1cccc2c1nc(N)n1cc(C(=O)N3CCC(C(C)C)CC3)nc21` [Ex-196, (5-amino-7-methoxyimidazo[1,2-c]quinazolin-2-yl)(4-isopropylpiperidin-1-yl)methanone] it is 11 nM; for `COc1cccc2c1nc(N)n1cc(C(=O)N3CCC4(CCOC4)CC3)nc21` [Ex-197, (5-amino-7-methoxyimidazo[1,2-c]quinazolin-2-yl)(2-oxa-8-azaspiro[4.5]decan-8-yl)methanone] it is 22 nM.

For the compound `COc1cccc2c1nc(N)n1cc(C(=O)N3CCCCC34CC4)nc21` [Ex-198, (5-amino-7-methoxyimidazo[1,2-c]quinazolin-2-yl)(4-azaspiro[2.5]octan-4-yl)methanone], the Ki came to 5.6 nM. Regarding `COc1cccc2c1nc(N)n1cc(C(=O)N3CCC(=O)C(C(C)C)C3)nc21` (stereo not drawn) [Ex-199, 1-(5-amino-7-methoxyimidazo[1,2-c]quinazoline-2-carbonyl)-3-isopropylpiperidin-4-one], the inhibition constant (Ki) was found to be 260 nM.

`COc1cccc2c1nc(N)n1cc(C(=O)N3CCCC4(CCC4)C3)nc21` [Ex-200, (5-amino-7-methoxyimidazo[1,2-c]quinazolin-2-yl)(6-azaspiro[3.5]nonan-6-yl)methanone]: the Ki came out at 4.6 nM. On to `COc1cccc2c1nc(N)n1cc(C(=O)N3CCC4(CC3)CC4)nc21` [Ex-201, (5-amino-7-methoxyimidazo[1,2-c]quinazolin-2-yl)(6-azaspiro[2.5]octan-6-yl)methanone], for which the Ki is 14 nM.
